Results on one compound are retold here after patent US8029768B2, “Treatment of respiratory diseases” (Sosei R&D Ltd., priority 2000, dated 2011).

One data set deals with asthma. The following applies: inhaled, Walker et al. 1987; cited from earlier work.
For data set [1] the following is noted: about 1 mg sample on sinter, 195 ml water reservoir, FIG. 1.
Method: A 195 ml reservoir was used in the dissolution test. The reservoir was filled with water and contained a sampling inlet port and a sampling outlet port. A sintered disk of approximately 50 mm diameter and 3 mm depth was placed in an opening on top of the reservoir, in contact with the water. A known mass (about 1 mg) of the sample to be tested was dropped onto the sinter and a timer started. At various times, 1 ml samples were removed from the reservoir and immediately replaced with 1 ml of water to maintain the volume in the system. The samples were analysed in a Cecil Aquarius CE7200 ultraviolet spectrophotometer at a wavelength of 200 nm. The concentration of the samples was calculated with a previously prepared calibration graph and the concentration versus time was plotted.

Structures are written as SMILES.

As for `C[N+]1(C)CCC(OC(=O)C(O)(c2ccccc2)C2CCCC2)C1` (stereo not shown) [glycopyrrolate], in the data set on asthma, the “duration of effective treatment” value is reported as “up to 12 hours” and the “duration of effective treatment that appears to be maximal” value is given as “up to 8 hours”. In addition, the “time at which the maximum concentration is achieved” value in data set [1] was determined as 10 min. Moreover, the “concentration of glycopyrrolate in the reservoir at 5 minutes” value in data set [1] (first time point 5 minutes) was “greater than 10 mg/l”.
